The values below come from US10111936B2, “Metal-glycoprotein complexes and photodynamic therapy of immune privileged sites with same” (Theralase Technologies, Inc., priority 2015, dated 2018).

Where two headings read alike, the source gives them in different places.

Data set [1] relates to U87 cells. The data set is described as follows: Intracellular uptake by ICP-MS, cancer cells. It counts as cell-based, human. The following applies: 200 uM photosensitizer, 0.8 mg/mL transferrin, 4 hours. Here is the method:
Cell culture (U87 cells) was exposed to 200 uM of the photosensitizer without additional transferrin and in the presence of 0.8 mg/mL transferrin for 4 hours. The incubation mix was washed away and the cells were collected, counted, and lysed. Lysed solution was dissolved in nitric acid and appropriate metals concentration was measured using inductively coupled plasma mass spectrometry. The metals concentration is directly proportional to the concentration of the photosensitizer.

The subject of data set [2] is AY27 cancer cell line. Nature of the data set: In vitro PDT in hypoxia. It counts as cell-based. The following applies: 635 nm, 90 J cm−2, hypoxic 0.5-0.1% O2, 0.4 mg/mL human transferrin. Here is the method:
The cells were incubated for 90 minutes in premix of the photosensitizer and 0.4 mg/mL human transferrin (or without transferrin, as a control group) as described above for in vitro PDT. Dark toxicity and PDT effect of the photosensitizers on AY27 cell line under 635 nm (90 J cm−2) irradiation in the absence and presence of transferrin in normoxic (FIGS. 17A, 17B) and hypoxic (0.5-0.1% O2, FIGS. 17C, 17D) conditions. The cells were incubated with the photosensitizer and transferrin for 90 minutes. After that, the cells were irradiated and the medium was replaced with a fresh one (without photosensitizer and transferrin). On the next day (21 hours post-irradiation), viability of the cells was measured using Presto Blue viability assay, and percent of cell kill was calculated. The PDT effect shown is a result of subtraction of “photosensitizer alone” and “light alone” cell kill from the total PDT cell kill.
The cells were incubated for 90 minutes in premix of the photosensitizer and 0.4 mg/mL human transferrin (or without transferrin, as a control group) as described above for in vitro PDT. […] On the next day (21 hours post-irradiation), viability of the cells was measured using Presto Blue viability assay, and percent of cell kill was calculated. […]

The nature of data set [3]: Fluorescence with and without transferrin. It counts as physicochemical. The following applies: for fluorescence emission maximum: 10 uM. Here is the method:
Fluorescence of TLD1433 (10 uM) was measured quartz cuvettes without Tf (in water) and in the presence of 0.2 mg/mL Tf (in phosphate buffer+100 mM NaCl, pH=7.0). Fluorescence was measured at different excitation wavelengths (380, 400, 450, 470, 500 nm).
Fluorescence of TLDOsH2dppn (10 uM) was measured quartz cuvettes without Tf (in water) and in the presence of 0.2 mg/mL Tf (in phosphate buffer+100 mM NaCl, pH=7.0). Fluorescence was measured at different excitation wavelengths (380, 400, 450, 470, 500 nm).

Data set [4] deals with U87 cells.

As for `[Os+2].c1ccc2cc3nc4c5cccnc5c5ncccc5c4nc3cc2c1.c1ccc2nc(-c3ccc4ccccc4n3)ccc2c1.c1ccc2nc(-c3ccc4ccccc4n3)ccc2c1` [TLDOsH2dppn], the “uptake into cancer cells, effect of transferrin” value in data set [1] is “transferrin facilitated uptake”. For the same compound, in data set [2], the “PDT effect under hypoxic conditions, effect of transferrin” value is given as “ensured PDT effect”. Also, the values for the fluorescence emission maximum in data set [3] (0.2 mg/mL transferrin) and in data set [3] (no transferrin (in water)) were 650 nm and 660 nm, respectively. Moreover, the “fluorescence in the presence of transferrin” value in data set [3] (0.2 mg/mL transferrin, especially at 470 nm excitation) is on record as “strongly increased”. For the same compound, the “Therapeutic Ratio” value in data set [4] (530 nm, 90 J cm−2, no transferrin) is given as 1307.3; in data set [4] (530 nm, 90 J cm−2, transferrin), 5238.0; in data set [4] (650 nm, 90 J cm−2, no transferrin), 15.3; in data set [4] (650 nm, 90 J cm−2, transferrin) it was 50.3.
